Experimental data taken from patent US20230019236A1, “PROTEIN TYROSINE PHOSPHATASE INHIBITORS AND METHODS OF USE THEREOF” (Calico Life Sciences LLC, priority 2019, published 2023).

Molecular target: T1, His tagged full-length PTP1B protein (Homo sapiens, UniProt P18031)
T1 construct: made in house
T1 sequence (P18031 with tags, fused parts or gaps): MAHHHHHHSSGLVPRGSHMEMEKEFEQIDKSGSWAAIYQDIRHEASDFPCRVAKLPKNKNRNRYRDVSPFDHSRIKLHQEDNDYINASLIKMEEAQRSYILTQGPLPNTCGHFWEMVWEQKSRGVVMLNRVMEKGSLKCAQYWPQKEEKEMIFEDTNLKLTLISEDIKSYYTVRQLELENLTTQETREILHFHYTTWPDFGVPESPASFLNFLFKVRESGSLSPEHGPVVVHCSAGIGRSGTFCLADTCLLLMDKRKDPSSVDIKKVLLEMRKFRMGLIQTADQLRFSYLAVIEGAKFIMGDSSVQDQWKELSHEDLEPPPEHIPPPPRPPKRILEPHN
Assay: Mobility Shift Assay (MSA) used to determine potency of PTP1B inhibitors
Type: biochemical
Conditions: Table 2
Procedure: The enzymatic assay used to determine activity is a mobility shift assay using a LabChip EZ Reader by Caliper Life Sciences. The enzymatic reaction was carried out in assay buffer (50 mM HEPES pH 7.5, 1 mM EGTA, 10 mM EDTA, 0.01% Tween® 20, and 2 mM DTT). […] The enzyme (at 0.5 nM) was incubated with compound for 10 minutes at room temperature. […] The % inhibition was then used to calculate the IC50 values.

SMILES	IC50
CC(C)OCCOc1ccc2cc(O)c(N3CC(=O)NS3(=O)=O)c(F)c2c1 [Compound 215, 5-(1-fluoro-3-hydroxy-7-{2-[(propan-2-yl)oxy]ethoxy}naphthalen-2-yl)-1λ^6,2,5-thiadiazolidine-1,1,3-trione]	1 to 10 nM
CCOCCCOc1ccc2cc(O)c(N3CC(=O)NS3(=O)=O)c(F)c2c1 [Compound 216, 5-[7-(3-ethoxypropoxy)-1-fluoro-3-hydroxynaphthalen-2-yl]-1λ^6,2,5-thiadiazolidine-1,1,3-trione]	1 to 10 nM
CC(C)(C)OCCOc1ccc2cc(O)c(N3CC(=O)NS3(=O)=O)c(F)c2c1 [Compound 217, 5-[7-(2-tert-butoxyethoxy)-1-fluoro-3-hydroxynaphthalen-2-yl]-1λ^6,2,5-thiadiazolidine-1,1,3-trione]	1 to 10 nM
CC(C)CCCc1ccc2cc(O)c(N3CC(=O)NS3(=O)=O)c(F)c2c1 [Compound 219, 5-[1-fluoro-3-hydroxy-7-(4-methylpentyl)naphthalen-2-yl]-1λ^6,2,5-thiadiazolidine-1,1,3-trione]	10 to 100 nM
O=C1CN(c2c(O)cc3ccc(OC4CC4)cc3c2F)S(=O)(=O)N1 [Compound 223, 5-[7-(cyclopropyloxy)-1-fluoro-3-hydroxynaphthalen-2-yl]-1λ^6,2,5-thiadiazolidine-1,1,3-trione]	1 to 10 nM
O=C1CN(c2c(O)cc3ccc(NCCC4CC4)cc3c2F)S(=O)(=O)N1 [Compound 224, 5-{7-[(2-cyclopropylethyl)amino]-1-fluoro-3-hydroxynaphthalen-2-yl}-1λ^6,2,5-thiadiazolidine-1,1,3-trione]	1 to 10 nM
Cc1c[nH]c(-c2ccc3cc(O)c(N4CC(=O)NS4(=O)=O)c(F)c3c2)n1 [Compound 225, 5-[1-fluoro-3-hydroxy-7-(4-methyl-1H-imidazol-2-yl)naphthalen-2-yl]-1λ^6,2,5-thiadiazolidine-1,1,3-trione]	10 to 100 nM
O=C1CN(c2c(O)cc3ccc(C4CNC4)cc3c2F)S(=O)(=O)N1 [Compound 226, 5-[7-(azetidin-3-yl)-1-fluoro-3-hydroxynaphthalen-2-yl]-1λ^6,2,5-thiadiazolidine-1,1,3-trione]	10 to 100 nM
COc1ccc(-c2ccc3cc(O)c(N4CC(=O)NS4(=O)=O)c(F)c3c2)s1 [Compound 227, 5-[1-fluoro-3-hydroxy-7-(5-methoxythiophen-2-yl)naphthalen-2-yl]-1λ^6,2,5-thiadiazolidine-1,1,3-trione]	> 100 nM
N#CCc1ccc2cc(O)c(N3CC(=O)NS3(=O)=O)c(F)c2c1 [Compound 228, [8-fluoro-6-hydroxy-7-(1,1,4-trioxo-1λ^6,2,5-thiadiazolidin-2-yl)naphthalen-2-yl]acetonitrile]	10 to 100 nM
COCc1ccc2cc(O)c(N3CC(=O)NS3(=O)=O)c(F)c2c1 [Compound 229, 5-[1-fluoro-3-hydroxy-7-(methoxymethyl)naphthalen-2-yl]-1λ^6,2,5-thiadiazolidine-1,1,3-trione]	10 to 100 nM
CC1(COc2ccc3cc(O)c(N4CC(=O)NS4(=O)=O)c(F)c3c2)COC1 [Compound 230, 5-{1-fluoro-3-hydroxy-7-[(3-methyloxetan-3-yl)methoxy]naphthalen-2-yl}-1λ^6,2,5-thiadiazolidine-1,1,3-trione]	> 100 nM
O=C1CN(c2c(O)c(Br)c3ccc(-c4ccn(S(=O)(=O)C5CC5)c4)cc3c2F)S(=O)(=O)N1 [Compound 231B, 5-{4-bromo-7-[1-(cyclopropanesulfonyl)-1H-pyrrol-3-yl]-1-fluoro-3-hydroxynaphthalen-2-yl}-1λ^6,2,5-thiadiazolidine-1,1,3-trione]	1 to 10 nM
COc1ccc2cc(O)c(N3CC(=O)NS3(=O)=O)c(F)c2c1Cl [Compound 234, 5-(8-chloro-1-fluoro-3-hydroxy-7-methoxynaphthalen-2-yl)-1λ^6,2,5-thiadiazolidine-1,1,3-trione]	10 to 100 nM
O=C1CN(c2c(O)cc3ccc(OCC4CC(F)(F)C4)cc3c2F)S(=O)(=O)N1 [Compound 235, 5-{7-[(3,3-difluorocyclobutyl)methoxy]-1-fluoro-3-hydroxynaphthalen-2-yl}-1λ^6,2,5-thiadiazolidine-1,1,3-trione]	< 1 nM
O=C1CN(c2c(O)cc3ccc(C4CC4)cc3c2F)S(=O)(=O)N1 [Compound 236, 5-(7-cyclopropyl-1-fluoro-3-hydroxynaphthalen-2-yl)-1λ^6,2,5-thiadiazolidine-1,1,3-trione]	> 100 nM
O=C1CN(c2c(O)cc3ccc(C4=CCN(C(=O)C5CC5)C4)cc3c2F)S(=O)(=O)N1 [Compound 237, 5-{7-[1-(cyclopropanecarbonyl)-2,5-dihydro-1H-pyrrol-3-yl]-1-fluoro-3-hydroxynaphthalen-2-yl}-1λ^6,2,5-thiadiazolidine-1,1,3-trione]	< 1 nM

SMILES	IC50
COc1ccc2c(Cl)c(O)c(N3CC(=O)NS3(=O)=O)c(F)c2c1 [Compound 238, 5-(4-chloro-1-fluoro-3-hydroxy-7-methoxynaphthalen-2-yl)-1λ^6,2,5-thiadiazolidine-1,1,3-trione]	> 100 nM
O=C1CN(c2c(O)cc3ccc(/C=C/C4CC4)cc3c2F)S(=O)(=O)N1 [Compound 239, 5-{7-[(E)-2-cyclopropylethenyl]-1-fluoro-3-hydroxynaphthalen-2-yl}-1λ^6,2,5-thiadiazolidine-1,1,3-trione]	10 to 100 nM
CC(C)C/C=C/c1ccc2cc(O)c(N3CC(=O)NS3(=O)=O)c(F)c2c1 [Compound 240, 5-{1-fluoro-3-hydroxy-7-[(1E)-4-methylpent-1-en-1-yl]naphthalen-2-yl}-1λ^6,2,5-thiadiazolidine-1,1,3-trione]	1 to 10 nM
C=C(c1ccc2cc(O)c(N3CC(=O)NS3(=O)=O)c(F)c2c1)c1c(C)c(C)c(C)c(C)c1C [Compound 241, 5-{1-fluoro-3-hydroxy-7-[1-(pentamethylphenyl)ethenyl]naphthalen-2-yl}-1λ^6,2,5-thiadiazolidine-1,1,3-trione]	> 100 nM
O=C1CN(c2c(O)cc3ccc(C4=CCN(CC5CC5)C4)cc3c2F)S(=O)(=O)N1 [Compound 242, 5-{7-[1-(cyclopropylmethyl)-2,5-dihydro-1H-pyrrol-3-yl]-1-fluoro-3-hydroxynaphthalen-2-yl}-1λ^6,2,5-thiadiazolidine-1,1,3-trione]	1 to 10 nM
COc1ccc2c(Br)c(O)c(N3CC(=O)NS3(=O)=O)c(F)c2c1 [Compound 243, 5-(4-bromo-1-fluoro-3-hydroxy-7-methoxynaphthalen-2-yl)-1λ^6,2,5-thiadiazolidine-1,1,3-trione]	> 100 nM
COC/C=C/c1ccc2cc(O)c(N3CC(=O)NS3(=O)=O)c(F)c2c1 [Compound 245, 5-{1-fluoro-3-hydroxy-7-[(1E)-3-methoxyprop-1-en-1-yl]naphthalen-2-yl}-1λ^6,2,5-thiadiazolidine-1,1,3-trione]	1 to 10 nM
CCOCCOc1ccc2cc(O)c(N3CC(=O)NS3(=O)=O)c(F)c2c1 [Compound 246, 5-[7-(2-ethoxyethoxy)-1-fluoro-3-hydroxynaphthalen-2-yl]-1λ^6,2,5-thiadiazolidine-1,1,3-trione]	> 100 nM
COCCCOc1ccc2cc(O)c(N3CC(=O)NS3(=O)=O)c(F)c2c1 [Compound 247, 5-[1-fluoro-3-hydroxy-7-(3-methoxypropoxy)naphthalen-2-yl]-1λ^6,2,5-thiadiazolidine-1,1,3-trione]	1 to 10 nM
O=C1CN(c2c(O)cc3ccc(C4CCS(=O)(=O)CC4)cc3c2F)S(=O)(=O)N1 [Compound 248, 5-[7-(1,1-dioxo-1λ^6-thian-4-yl)-1-fluoro-3-hydroxynaphthalen-2-yl]-1λ^6,2,5-thiadiazolidine-1,1,3-trione]	> 100 nM
O=C1CN(c2c(O)cc3ccc(OCC4CC4)cc3c2F)S(=O)(=O)N1 [Compound 250, 5-[7-(cyclopropylmethoxy)-1-fluoro-3-hydroxynaphthalen-2-yl]-1λ^6,2,5-thiadiazolidine-1,1,3-trione]	1 to 10 nM
O=C1CN(c2c(O)cc3ccc(CC4CCN(CC(F)(F)F)CC4)cc3c2F)S(=O)(=O)N1 [Compound 252, 5-(1-fluoro-3-hydroxy-7-{[1-(2,2,2-trifluoroethyl)piperidin-4-yl]methyl}naphthalen-2-yl)-1λ^6,2,5-thiadiazolidine-1,1,3-trione]	1 to 10 nM
O=C1CN(c2c(O)cc3ccc(CC4CN(S(=O)(=O)C5CC5)C4)cc3c2F)S(=O)(=O)N1 [Compound 256, 5-(7-{[1-(cyclopropanesulfonyl)azetidin-3-yl]methyl}-1-fluoro-3-hydroxynaphthalen-2-yl)-1λ^6,2,5-thiadiazolidine-1,1,3-trione]	1 to 10 nM
O=C1CN(c2c(O)cc3ccc(C4=CCOC4)cc3c2F)S(=O)(=O)N1 [Compound 263, 5-[7-(2,5-dihydrofuran-3-yl)-1-fluoro-3-hydroxynaphthalen-2-yl]-1λ^6,2,5-thiadiazolidine-1,1,3-trione]	10 to 100 nM
O=C1CN(c2c(O)cc3ccc(C4=CCOCC4)cc3c2F)S(=O)(=O)N1 [Compound 264, 5-[7-(3,6-dihydro-2H-pyran-4-yl)-1-fluoro-3-hydroxynaphthalen-2-yl]-1λ^6,2,5-thiadiazolidine-1,1,3-trione]	10 to 100 nM
O=C1CN(c2c(O)cc3ccc(C4=CCNC4)cc3c2F)S(=O)(=O)N1 [Compound 265, 5-[7-(2,5-dihydro-1H-pyrrol-3-yl)-1-fluoro-3-hydroxynaphthalen-2-yl]-1λ^6,2,5-thiadiazolidine-1,1,3-trione]	1 to 10 nM
